The results in this text go back to patent US20090088460A1, “Administration of E-3[3-[N-(4-methoxybenzenesulfonyl)-N-isopropylamino]phenyl]-3-(3-pyridyl)propenohydroxamic acid for preventing and/or treating inflammatory cutaneous pathologies/afflictions” (GALDERMA RESEARCH &DEVELOPMENT, priority 2007, published 2009).

Test [1] deals with arachidonic acid-induced mouse ear edema. The test can be described thus: Arachidonic acid-induced mouse ear edema test, single topical application. The format is in vivo. The following applies: Balb/c mice; for reduction of the arachidonic acid-induced ear edema: 20 μl on right ear. As to the method:
Evaluation of the Anti-Inflammatory Activity of W3646 (Compound (I)) after Single Topical Application in the Arachidonic Acid-Induced Mouse Ear Edema Test on Balb/c Mice
The arachidonic acid is dissolved in a mixture of THF/methanol at 4%.
The test compound is dissolved in the solution of arachidonic acid (AA) at the final concentration, and tested at concentrations of 0.1, 0.3 and 1%.
20 μl of the solution are applied to the inner face of the right ear.
The thickness of the ear is measured at T+1 h, T+2 h and T+4 h.

The test system of test [2] is TPA-induced mouse ear edema. Put plainly: TPA-induced mouse ear edema test, single topical application. The class given is in vivo. The following applies: Balb/c mice; for reduction of the TPA-induced ear edema: T+6 h. As to the method: Evaluation of the Anti-Inflammatory Activity of W3646 (Compound (I)) after Single Topical Application in the TPA-Induced Mouse Ear Edema Test on Balb/c Mice (TPA=Tetradecanoylphorbol Acetate)
The edema is induced by single application of 20 μl of TPA dissolved in acetone at 0.01%. […]
A positive control, β-methasone valerate (VdB), is also tested.
The thickness of the mouse ear is measured at T+6 h.

For `COc1ccc2c(c1)c(CC(=O)O)c(C)n2C(=O)c1ccc(Cl)cc1` [Indomethacin, reference compound], the “inhibition of the ear edema caused by arachidonic acid” value in test [1] (indomethacin at 5%, single topical application in 4% arachidonic acid solution, ear thickness measured T+1 h, T+2 h, T+4 h) was 92%.
`CCCCC(=O)O[C@]1(C(=O)CO)[C@@H](C)C[C@H]2[C@@H]3CCC4=CC(=O)C=C[C@]4(C)[C@@]3(F)[C@@H](O)C[C@@]21C` [betamethasone valerate, reference compound]: the “reduction in the TPA-induced ear edema” value in test [2] (0.01% diluted in 0.01% TPA solution, ear thickness at T+6 h, ***) was found to be 93%.
For `COc1ccc(S(=O)(=O)N(c2cccc(/C(=C\C(=O)NO)c3cccnc3)c2)C(C)C)cc1` [W3646, E-3-[3-[N-(4-methoxybenzene-sulfonyl)-N-isopropylamino]phenyl]-3-(3-pyridyl)-propenohydroxamic acid], the “reduction of the arachidonic acid-induced ear edema” value in test [1] (0.1% topical in 4% arachidonic acid solution, NS) is on record as 16%; in test [1] (0.3% topical in 4% arachidonic acid solution, *), 49%; in test [1] (1% topical in 4% arachidonic acid solution, **), 71%. For the same molecule, the “reduction of the TPA-induced ear edema” value turned out to be 26% in test [2] (0.1% in 0.01% TPA solution, NS); 53% in test [2] (0.3% in 0.01% TPA solution, **); 79% in test [2] (1% in 0.01% TPA solution, ***).
